Measurements published in BindingDB's records for doi:10.1016/j.bmcl.2012.05.114 (Vertex Pharmaceuticals, 2012).

Target: Tyrosine-protein kinase SYK (Homo sapiens) (UniProt P43405)
Experiment: Inhibition of SYK

For `CC(C)C[C@H]1CN(c2ccc(C(F)(F)F)c(C(=O)c3cccnc3N)n2)CCN1`, the Ki was > 4 µM.
